This is an account of results in patent publication US11480559B2, “Blood collection tube, reagent, and method for analyzing blood characteristics using same” (FUJIMORI KOGYO CO., LTD., priority 2016, dated 2022).

Holding throughout (type): cell-based
For assay [1], the system named is blood coagulation. As to the kind of experiment: ROTEM measurement, BD sodium citrate tube, calcium chloride, CTI, aprotinin, heparin sodium and prothrombin reagent (tissue factor). The note with it: (1) no hemostatic agent; (2) NovoSeven 2 μg/mL; (3) TFPI 10 μg/mL; HemosIL RecombiPlasTin 0.04%. As to the method:
(§1) To a blood sample collected in a sodium citrate blood collection tube manufactured by BD (containing 3.2% sodium citrate in an amount of 1/10 volume with respect to the blood), the following reagents were added to perform ROTEM measurement.
(1) Calcium chloride (final concentration, 12 mM), CTI (final concentration, 50 μg/mL), aprotinin (final concentration, 20 μg/mL), heparin sodium (final concentration, 0.15 U/mL), and a prothrombin reagent (addition of HemosIL RecombiPlasTin (15 μg/mL) to a final concentration of about 0.04%)
(2) Calcium chloride (final concentration, 12 mM), CTI (final concentration, 50 μg/mL), aprotinin (final concentration, 20 μg/mL), heparin sodium (final concentration, 0.15 U/mL), NovoSeven (final concentration, 2 μg/mL), and a prothrombin reagent (addition of HemosIL RecombiPlasTin to a final concentration of 0.04%) […]

In assay [2] the test system is blood coagulation. As to the kind of experiment: ROTEM measurement with STARTEM and EXTEM reagents (Comparative Example). Conditions: (1) alone, (2) NovoSeven 2 μg/mL, (3) TFPI 10 μg/mL. As for the experimental part: as §1
(1) STARTEM reagent and EXTEM reagent (trademark; a test reagent containing tissue factor as a major component)
(2) STARTEM reagent, EXTEM reagent, and NovoSeven (Novo Nordisk Pharma Ltd.; final concentration, 2 μg/mL)
(3) STARTEM reagent, EXTEM reagent, and TFPI (final concentration, 10 μg/mL)

Assay [3] concerns blood coagulation. As to the kind of experiment: ROTEM measurement of blood collected in BD sodium citrate tube with added reagents. Conditions: for blood coagulation (ROTEM): CTI 50 μg/mL, aprotinin 20 μg/mL. As to the method: as §1
(2) Calcium chloride (final concentration, 12 mM) and CTI (final concentration, 50 μg/mL)
(3) Calcium chloride (final concentration, 12 mM), CTI (final concentration, 50 μg/mL), and aprotinin (final concentration, 20 μg/mL)
(4) Calcium chloride (final concentration, 12 mM), CTI (final concentration, 50 μg/mL), aprotinin (final concentration, 20 μg/mL), and danaparoid sodium (final concentration, 0.25 U/mL)
The results for (1), (2), (3), and (4) are shown from the left in this order (in the order of initiation of coagulation).
(1) STARTEM reagent (calcium chloride reagent)
(4) Calcium chloride (final concentration, 12 mM), CTI (final concentration, 50 μg/mL), aprotinin (final concentration, 20 μg/mL), and heparin sodium (Mochida Pharmaceutical Co., Ltd.; final concentration, 0.15 U/mL)

The subject of assay [4] is platelet thrombus formation. As to the kind of experiment: Flow measurement of platelet thrombus formation in collagen-coated microchip, device of FIG. 1. The note with it: blood collected in BD heparin blood collection tube, directly measured; 18 μL/min. The source says:
First, a method for analyzing the platelet thrombus formation capacity using a microchip A for analysis of a platelet thrombus is described below with reference to FIG. 1. In the example illustrated in FIG. 1, two channels are provided in parallel. However, this is merely an example, and, of course, the microchip may have a single channel, or may be in a different mode.
Reservoirs (blood storage containers) 106 and 116 are connected in an inverted position to a first inlet 104 and a second inlet 114, respectively, of the microchip A, and liquid transfer pumps 107, and 117 are connected to the reservoirs 106 and 116. To the liquid transfer pumps 107 and 117, pressure sensors 108 and 118 are connected. […]
As the liquid for the liquid transfer pumps 107 and 117, a liquid having a specific gravity lower than that of blood, such as mineral oil or […] is used. […] By measuring the inflow pressure of the liquid, the inflow pressure of the blood into each channel can be indirectly measured. […]
Thrombus formation by platelets occurs when the blood passes through the reaction sections, and increases in the inflow pressure due to this thrombus formation can be observed. By detecting the patterns of these pressure increases using the pressure sensors, and comparing the detected patterns, blood properties, that is, the platelet thrombus formation capacity, can be evaluated. […]

Assay [5] relates to mixed white thrombus formation. As to the kind of experiment: Thrombogenic capacity (white thrombus formation) in microchip coated with collagen and tissue factor, device of FIG. 2. Conditions: tube A; aprotinin 10 μg/mL added before blood collection; calcium chloride 12 mM and CTI 50 μg/mL; flow rate 10 μL/min. As to the method: A method for analyzing the mixed white thrombus formation capacity using a microchip B for analysis of a mixed white thrombus is described below with reference to FIG. 2. The example illustrated in FIG. 2 is a mode in which a blood coagulation inhibitor is added to blood that has passed through a channel. However, this is merely an example, and the microchip may be, of course, in a different mode.
A reservoir (blood storage container) 206 is connected in an inverted position to an inlet 204 of the microchip B, and a liquid transfer pump 207 is connected to the reservoir 206. To the liquid transfer pump 207, a pressure sensor 208 is connected.
As the liquid for a liquid transfer pump 207, a liquid having a specific gravity lower than that of blood, such as mineral oil or […] is used. This liquid is introduced using the liquid transfer pump 207 into a reservoir 206 in which blood is preliminarily filled, thereby overlaying the liquid on the blood. […] By measuring the inflow pressure of the liquid, the inflow pressure of the blood into the channel can be indirectly measured.
More specifically, mineral oil is injected from the liquid transfer pump 207 into the reservoir 206. […] By providing the narrow section, high-shear-stress-induced platelet aggregation can be monitored, and thrombus formation in atherothrombosis can be reproduced, which is preferred. […]

Regarding Ac-FQSKpNVHVDGYFERLXAKL-NH2 [TFPI], the “order of coagulation (ROTEM)” value in assay [1] was “Coagulation occurred in the order of (2), (3), and (1)”. In addition, the “ROTEM waveform versus reagent alone” value in assay [2] is reported as “showed the same waveform”.
On to danaparoid sodium, for which, in assay [3] (danaparoid sodium 0.25 U/mL further added to calcium chloride 12 mM), the “blood coagulation (ROTEM)” value is on record as “complete suppression of blood coagulation”.
heparin sodium: the “blood coagulation (ROTEM)” value in assay [3] (heparin sodium 0.15 U/mL further added to calcium chloride 12 mM) is “complete suppression of blood coagulation”.
As to heparin, in assay [4], the “pressure increase due to platelet thrombus formation” value was “hardly observed”.
aprotinin: the “thrombogenic capacity in the presence of blood flow” value in assay [5] was “did not influence the data”. The “initiation of coagulation (ROTEM)” value in assay [3] (aprotinin 20 μg/mL together with calcium chloride 12 mM and CTI 50 μg/mL) is recorded as “suppressed initiation of blood coagulation”.
